Source: patent US8299100B2, “Potent and selective neuronal nitric oxide synthase inhibitors with improved membrane permeability” (Northwestern University, priority 2009, dated 2012)
Where two headings read alike, the source gives them in different places.

Experiments:
nNOS = nNOS (Rattus norvegicus, UniProt P29476); assay: cell-based assay of inhibitor potency (membrane permeability); conditions: for IC50: Table 3, cell-based assay; for increase in cell membrane permeation: relative to 1, from IC50/IC50(cell)
Excerpt: This assay can provide valuable data about membrane permeability.

rat nNOS = rat nNOS (Rattus norvegicus, UniProt P29476); assay: NOS hemoglobin capture assay, purified recombinant enzyme (nNOS)
Description: (§1) The three isozymes were recombinant enzymes, which were overexpressed (in E. coli) and isolated as reported. The formation of nitric oxide was measured using a hemoglobin capture assay described previously.
(§2) The three isozymes were recombinant enzymes, which were overexpressed (in E. coli) and isolated as reported. The formation of nitric oxide was measured using a hemoglobin capture assay described previously. […] The corresponding Ki values of inhibitors were calculated from the IC50 values using equation 1 with known Km values, as above.

bovine eNOS = bovine eNOS (Bos taurus, UniProt P29473); assay: NOS hemoglobin capture assay, purified recombinant enzyme (eNOS); conditions: for selectivity n/e: ratio of Ki (eNOS) to Ki (nNOS)
Description: as §1, §2

murine macrophage iNOS = murine macrophage iNOS (Mus musculus, UniProt P29477); assay: NOS hemoglobin capture assay, purified recombinant enzyme (iNOS); conditions: for selectivity n/i: ratio of Ki (iNOS) to Ki (nNOS)
Description: as §1, §2

[1] = read-out: Ki nNOS, Table 4, Ki calculated from measured IC50, 10 μM L-arginine

Cc1cc(N)nc(CC2CNCC2OCCNC2CC2c2cccc(F)c2)c1 [Compound 2b, 6-(((3S,4S)/(3R,4R)-4-(2-(2-(3-Fluorophenyl)cyclopropylamino)ethoxy)pyrrolidin-3-yl)methyl)-4-methylpyridin-2-amine]
IC50 (nNOS): 9 µM
IC50/IC50(cell) × 10^−2 (nNOS; ratio of purified nNOS IC50 to cell-based IC50, indicates relative membrane permeability): 4.4 × 10^−2
increase in cell membrane permeation (nNOS): 2.4 fold
IC50 (rat nNOS): 0.4 µM
Ki (rat nNOS): 0.046 µM
Ki (bovine eNOS): 68 µM
selectivity n/e (bovine eNOS; Table 2): 1500
Ki (murine macrophage iNOS): 11 µM
selectivity n/i (murine macrophage iNOS; Table 2): 220

Cc1cc(N)nc(CC2CNCC2OCCNCC(F)c2cccc(F)c2)c1 [Compound 2c, 6-(((3S,4S)/(3R,4R)-4-(2-(2-Fluoro-2-(3-fluorophenyl)propylamino)ethoxy)pyrrolidin-3-yl)methyl)-4-methylpyridin-2-amine]
IC50 (nNOS): 10 µM
increase in cell membrane permeation (nNOS): 1.7 fold

Cc1cc(N)nc(CC2CNCC2OCCNCC(F)(F)c2cccc(F)c2)c1 [Compound 2d, 6-(((3S,4S)/(3R,4R)-4-(2-(2,2-Difluoro-2-(3-fluorophenypethylamino)ethoxy)pyrrolidin-3-yemethyl)-4-methylpyridin-2-amine]
IC50 (nNOS): 19 µM
increase in cell membrane permeation (nNOS): 2.0 fold
IC50 (rat nNOS; Table 3, purified enzyme assay (nNOS)): 0.7 µM
Ki (rat nNOS; read-out: Ki nNOS, Table 2, Ki calculated from measured IC50, 10 μM L-arginine): 0.08 µM
Ki (rat nNOS; [1]): 0.08 µM
drop in potency (nNOS) (rat nNOS; relative to 2c): 2.2 fold

Cc1cc(N)nc(C[C@H]2CNC[C@H]2OCCNCC(F)(F)c2cccc(F)c2)c1 [Compound 2da]
Ki (rat nNOS): 0.39 µM
loss of potency (nNOS) (rat nNOS; compared to racemic 2d): five-fold less potent
Ki (bovine eNOS): 110 µM
Ki (murine macrophage iNOS): 130 µM

Cc1cc(N)nc(C[C@@H]2CNC[C@@H]2OCCNCC(F)(F)c2cccc(F)c2)c1 [Compound 2db]
Ki (rat nNOS): 0.036 µM
lower Ki (nNOS) (rat nNOS; 2db compared to 2da): 10 fold
Ki (bovine eNOS): 140 µM
Ki (murine macrophage iNOS): 51 µM

Cc1cc(N)nc(C[C@@H]2CNC[C@@H]2OCCNCC(F)(F)c2ccc(F)cc2)c1 [Compound 2dc]
loss of potency (nNOS) (rat nNOS; compared to 2db): 4.5 fold
Ki (rat nNOS; [1]): 0.16 µM
selectivity n/e (bovine eNOS; Table 4): 190
Ki (bovine eNOS; read-out: Ki eNOS, Table 4, Ki calculated from measured IC50, 10 μM L-arginine): 31 µM
selectivity n/i (murine macrophage iNOS; Table 4): 1200
Ki (murine macrophage iNOS; read-out: Ki iNOS, Table 4, Ki calculated from measured IC50, 10 μM L-arginine): 190 µM

Cc1cc(N)nc(C[C@@H]2CNC[C@@H]2OCCNCC(F)(F)c2ccccc2)c1 [Compound 2dd]
Ki (rat nNOS): 0.085 µM
Ki (murine macrophage iNOS): 85 µM

CC1CC(N)=NC(C[C@@H]2CNC[C@@H]2OCCNCC(F)(F)c2ccccc2)C1 (stereo partly drawn) [Compound 2e]
Ki (rat nNOS): 0.17 µM
drop in potency against nNOS (rat nNOS; compared to 2dd): 2 fold
Ki (bovine eNOS): 130 µM
selectivity n/e (bovine eNOS; Table 4): 770
Ki (murine macrophage iNOS): 26 µM
selectivity n/i (murine macrophage iNOS; Table 4): 150
better binding to iNOS (murine macrophage iNOS; compared to 2dd): more than 3 fold

Cc1cc(N)nc(C[C@H]2CNC[C@H]2OCCNCC(F)(F)C2CCCCN2)c1 (stereo partly drawn) [Compound 2f]
Ki (rat nNOS): 2.7 µM
Ki (bovine eNOS): 64 µM
selectivity n/e (bovine eNOS; Table 4): 24
Ki (murine macrophage iNOS): 450 µM
selectivity n/i (murine macrophage iNOS; Table 4): 170
